# Test results taken from patent publication US6667313B1, “8-substituted-6-triflouromethyl-9-pyrido [3,2-G] quinoline compounds as androgen receptor modulators” (Ligand Pharmaceuticals Inc., priority 1999, dated 2003).
# How the values were obtained:
# [1] = target: T1, ER (Homo sapiens, UniProt P03372); experiment: Co-transfection assay, ER agonist; type: cell-based; settings: Table 2; read-out: ER Potency Agon
# T1 construct: expressed in transfected cells; host or cells: CV-1 cells (inferred: the only cells described for the co-transfection assay)
# T1 sequence (P03372 1-595): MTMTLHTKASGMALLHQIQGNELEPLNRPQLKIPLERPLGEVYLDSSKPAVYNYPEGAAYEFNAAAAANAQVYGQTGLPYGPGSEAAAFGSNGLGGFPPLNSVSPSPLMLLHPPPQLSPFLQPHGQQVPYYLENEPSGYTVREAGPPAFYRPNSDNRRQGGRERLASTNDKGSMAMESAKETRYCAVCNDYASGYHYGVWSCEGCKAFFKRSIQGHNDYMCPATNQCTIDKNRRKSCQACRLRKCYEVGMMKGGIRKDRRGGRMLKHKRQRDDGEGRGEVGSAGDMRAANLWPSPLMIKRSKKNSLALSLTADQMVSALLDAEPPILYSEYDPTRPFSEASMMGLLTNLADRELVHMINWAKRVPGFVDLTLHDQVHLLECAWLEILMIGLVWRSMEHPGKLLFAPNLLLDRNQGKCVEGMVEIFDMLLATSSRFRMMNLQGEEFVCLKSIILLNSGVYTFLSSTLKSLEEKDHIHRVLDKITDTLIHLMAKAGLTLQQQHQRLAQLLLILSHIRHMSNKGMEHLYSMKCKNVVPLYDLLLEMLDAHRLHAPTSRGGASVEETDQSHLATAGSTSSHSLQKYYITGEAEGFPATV
# [2] = target: T1, ER; experiment: Co-transfection assay, ER antagonist; type: cell-based; settings: Table 2; read-out: ER Potency Antag
compound,measurement,setting,value
CC(C)(O)C(=O)Nc1ccc([N+](=O)[O-])c(C(F)(F)F)c1 [Flut],EC50,[1],> 10 µM
same,IC50,[2],> 10 µM
